This note sets out measurements from patent publication US20240197728A1, “METHODS AND PHARMACEUTICAL COMPOSITIONS FOR TREATING REFRACTORY EPILEPSY” (INSERM (INSTITUT NATIONAL DE LA SANTÉ ET DE LA RECHERCHE …, priority 2021, published 2024).

The test system of this assay is lithium-pilocarpine model of mTLE. The assay can be described thus: Lithium-pilocarpine mouse model of mTLE, telemetric ECoG seizure detection. Format: in vivo, C57Bl6/J mice. The conditions noted are these: PCPZ 2 mg/kg i.p. twice daily. Here is the method: Our procedures were all approved by local ethics committee (Charles Darwin, Apafis 202008050923999 v4). 8 weeks-old male C57B16/J mice were used in a pilocarpine-based model of temporal lobe epilepsy as described. In brief, animals received an intraperitoneal (ip) injection of LiCl (423 mg/kg) and scopolamine (1 mg/kg), respectively 18-24 hours and 1 hour prior to pilocarpine. Pilocarpine (75 mg/kg) was then injected ip and mice were continuously monitored for the onset of status epilepticus (SE). In mice in which the first pilocarpine injection had not triggered SE after one hour, a second injection at 20 mg/kg was performed. SE was interrupted one hour after onset by ip injection of diazepam and ketamine (both at 10 mg/kg). […] They were monitored daily for weight, behavior and were provided with enriched liquid food (Fortimel Energy®) for the first 5-7 days post SE. […]
ECoG probe implantation was performed 28 days post SE in all mice except for 1 mouse that was implanted prior to SE induction in order to monitor chronic seizure onset (FIG. 6D). […] One week after implantation, ECoG signal (0.3-160 Hz) were recorded continuously using a telemetric Octal Data Receiver (OpenSourceInstruments), amplified 100× and acquired at 512 Hz. Recordings were analyzed offline using Event Classification Processor ECP20 under NeuroArchiver 132. […]

In turn, `CN1CCN(CCCN2c3ccccc3Sc3ccc(Cl)cc32)CC1` [PCPZ, prochlorperazine] returned a seizure frequency (chronic phase days 40-45 post-SE, saline group 2.86±0.83) of 0.95±0.42 per day. Also, the “reduction in seizure frequency compared to saline control group” value (days 40-45 post-SE) worked out at 3 fold.
